Laboratory results published in US8916573B2, “Quinazoline-2,4-dione derivatives” (Actelion Pharmaceuticals Ltd., priority 2011, dated 2014).
Converted amounts (≈) assume the structure as drawn.

System: S. aureus 29213
Test: Bacterial growth minimal inhibitory concentrations (microdilution, cation-adjusted Mueller-Hinton Broth, CLSI M7-A7)
Assay type: cell-based
Conditions: Staphylococcus aureus, 29213; microdilution in cation-adjusted Mueller-Hinton Broth
Description: Bacterial Growth Minimal Inhibitory Concentrations: Minimal inhibitory concentrations (MICs; mg/l) were determined in cation-adjusted MuellerHinton Broth by a microdilution method following the description given in “Methods for Dilution Antimicrobial Susceptibility Tests for Bacteria that Grow Aerobically”, Approved standard, 7th ed., Clinical and Laboratory Standards Institute (CLSI) Document M7-A7, Wayne, Pa., USA, 2006. Typical antibacterial test results are given in Table 1 hereafter (MIC in mg/l).

MIC	Structure (SMILES)
0.125 µg/mL (≈ 0.265 µM)	O=C1COc2ccc(N3C[C@@H](CCCn4c(=O)[nH]c5cccc(Cl)c5c4=O)OC3=O)nc2N1 [Example 20, 5-chloro-3-{3-[(R)-2-oxo-3-(3-oxo-3,4-dihydro-2H-pyrido[3,2-b][1,4]oxazin-6-yl)-oxazolidin-5-yl]-propyl}-1H-quinazoline-2,4-dione]
≤ 0.016 µg/mL	Cc1cccc2[nH]c(=O)n(CCC[C@H]3CN(c4ccc5c(n4)NC(=O)CS5)C(=O)O3)c(=O)c12 [Example 8, 5-methyl-3-{3-[(S)-2-oxo-3-(3-oxo-3,4-dihydro-2H-pyrido[3,2-b][1,4]thiazin-6-yl)-oxazolidin-5-yl]-propyl}-1H-quinazoline-2,4-dione]
0.125 µg/mL (≈ 0.259 µM)	COc1cccc2[nH]c(=O)n(CCC[C@@H]3CN(c4ccc5c(c4)NC(=O)CS5)C(=O)O3)c(=O)c12 [Example 33, 5-methoxy-3-{3-[(R)-2-oxo-3-(3-oxo-3,4-dihydro-2H-benzo[1,4]-thiazin-6-yl)-oxazolidin-5-yl]-propyl}-1H-quinazoline-2,4-dione]
0.031 µg/mL (≈ 0.0642 µM)	COc1cccc2c(=O)n(CCC[C@@H]3CN(c4ccc5c(c4)NC(=O)CS5)C(=O)O3)c(=O)[nH]c12 [Example 36, 8-methoxy-3-{3-[(R)-2-oxo-3-(3-oxo-3,4-dihydro-2H-benzo[1,4]-thiazin-6-yl)-oxazolidin-5-yl]-propyl}-1H-quinazoline-2,4-dione]
≤ 0.016 µg/mL	Cn1c(=O)n(CCNC[C@H]2CN(c3ccc4c(n3)NC(=O)CS4)C(=O)O2)c(=O)c2cccc(Cl)c21 [Example 62, 8-chloro-1-methyl-3-(2-{[(S)-2-oxo-3-(3-oxo-3,4-dihydro-2H-pyrido[3,2-b][1,4]thiazin-6-yl)-oxazolidin-5-ylmethyl]-amino}-ethyl)-1H-quinazoline-2,4-dione]
≤ 0.016 µg/mL	Cn1c(=O)n(CCC[C@H]2CN(c3ccc4c(c3)NC(=O)CS4)C(=O)O2)c(=O)c2cccc(Cl)c21 [Example 31, 8-chloro-1-methyl-3-{3-[(S)-2-oxo-3-(3-oxo-3,4-dihydro-2H-benzo[1,4]thiazin-6-yl)-oxazolidin-5-yl]-propyl}-1H-quinazoline-2,4-dione]
≤ 0.016 µg/mL	O=C1CSc2ccc(N3C[C@H](CCCn4c(=O)c5cccc6c5n(c4=O)CCC6)OC3=O)cc2N1 [Example 44, 2-{3-[(S)-2-oxo-3-(3-oxo-3,4-dihydro-2H-benzo[1,4]thiazin-6-yl)-oxazolidin-5-yl]-propyl}-6,7-dihydro-5H-pyrido[3,2,1-ij]quinazoline-1,3-dione]
0.031 µg/mL (≈ 0.0617 µM)	O=C1CSc2ccc(N3C[C@H](CCCn4c(=O)[nH]c5cc6ccccc6cc5c4=O)OC3=O)cc2N1 [Example 42, 3-{3-[(S)-2-oxo-3-(3-oxo-3,4-dihydro-2H-benzo[1,4]-thiazin-6-yl)-oxazolidin-5-yl]-propyl}-1H-benzo[g]quinazoline-2,4-dione]
≤ 0.016 µg/mL	O=C1COc2ccc(N3C[C@H](CCCn4c(=O)c5cccc6c5n(c4=O)CCC6)OC3=O)nc2N1 [Example 45, 2-{3-[(S)-2-oxo-3-(3-oxo-3,4-dihydro-2H-pyrido[3,2-b][1,4]oxazin-6-yl)-oxazolidin-5-yl]-propyl}-6,7-dihydro-5H-pyrido[3,2,1-ij]quinazoline-1,3-dione]
≤ 0.016 µg/mL	Cc1cccc2c(=O)n(CCC[C@@H]3CN(c4ccc5c(c4)NC(=O)CS5)C(=O)O3)c(=O)[nH]c12 [Example 12, 8-methyl-3-{3-[(R)-2-oxo-3-(3-oxo-3,4-dihydro-2H-benzo[1,4]-thiazin-6-yl)-oxazolidin-5-yl]-propyl}-1H-quinazoline-2,4-dione]
≤ 0.016 µg/mL	O=C1CSc2ccc(N3C[C@@H](CCCn4c(=O)[nH]c5c(Cl)cccc5c4=O)OC3=O)cc2N1 [Example 21, 8-chloro-3-{3-[(R)-2-oxo-3-(3-oxo-3,4-dihydro-2H-benzo[1,4]thiazin-6-yl)-oxazolidin-5-yl]-propyl}-1H-quinazoline-2,4-dione]
0.25 µg/mL (≈ 0.477 µM)	CC(=O)N(CCn1c(=O)c2ccccc2n(C)c1=O)C[C@@H]1CN(c2ccc3c(n2)NC(=O)CS3)C(=O)O1 [Example 68, N-[2-(1-methyl-2,4-dioxo-1,4-dihydro-2H-quinazolin-3-yl)-ethyl]-N-[(R)-2-oxo-3-(3-oxo-3,4-dihydro-2H-pyrido[3,2-b][1,4]thiazin-6-yl)-oxazolidin-5-ylmethyl]-acetamide]
0.25 µg/mL (≈ 0.498 µM)	O=C1CSc2ccc(N3C[C@@H](CNCCn4c(=O)[nH]c5c(Cl)cccc5c4=O)OC3=O)cc2N1 [Example 64, 8-chloro-3-(2-{[(R)-2-oxo-3-(3-oxo-3,4-dihydro-2H-benzo[1,4]thiazin-6-yl)-oxazolidin-5-ylmethyl]-amino}-ethyl)-1H-quinazoline-2,4-dione]
0.063 µg/mL (≈ 0.129 µM)	O=C1CSc2ccc(N3C[C@@H](CCCn4c(=O)[nH]c5cc(F)c(F)cc5c4=O)OC3=O)cc2N1 [Example 38, 6,7-difluoro-3-{3-[(R)-2-oxo-3-(3-oxo-3,4-dihydro-2H-benzo[1,4]thiazin-6-yl)-oxazolidin-5-yl]-propyl}-1H-quinazoline-2,4-dione]
0.5 µg/mL (≈ 0.959 µM)	O=C1CSc2ccc(N3C[C@H](CCCn4c(=O)[nH]c5ccc(N6CCCC6)cc5c4=O)OC3=O)cc2N1 [Example 37, 3-{3-[(S)-2-oxo-3-(3-oxo-3,4-dihydro-2H-benzo[1,4]-thiazin-6-yl)-oxazolidin-5-yl]-propyl}-6-pyrrolidin-1-yl-1H-quinazoline-2,4-dione]
0.063 µg/mL (≈ 0.135 µM)	Cn1c(=O)n(CCCC[C@@H]2CN(c3ccc4c(n3)NC(=O)CO4)C(=O)O2)c(=O)c2ccccc21 [Example 52, 1-methyl-3-{4-[(R)-2-oxo-3-(3-oxo-3,4-dihydro-2H-pyrido[3,2-b][1,4]oxazin-6-yl)-oxazolidin-5-yl]-butyl}-1H-quinazoline-2,4-dione]
≤ 0.016 µg/mL	COc1c(F)c(F)cc2c(=O)n(CCC[C@H]3CN(c4ccc5c(c4)NC(=O)CS5)C(=O)O3)c(=O)n(C3CC3)c12 [Example 43, 1-cyclopropyl-6,7-difluoro-8-methoxy-3-{3-[(S)-2-oxo-3-(3-oxo-3,4-dihydro-2H-benzo[1,4]thiazin-6-yl)-oxazolidin-5-yl]-propyl}-1H-quinazoline-2,4-dione]
0.125 µg/mL (≈ 0.236 µM)	Cn1c(=O)n(CCNCC[C@@H]2CN(c3ccc4c(c3)NC(=O)CS4)C(=O)O2)c(=O)c2cccc(Cl)c21 [Example 30, 8-chloro-1-methyl-3-(2-{2-[(R)-2-oxo-3-(3-oxo-3,4-dihydro-2H-benzo[1,4]thiazin-6-yl)-oxazolidin-5-yl]-ethylamino}-ethyl)-1H-quinazoline-2,4-dione]
0.063 µg/mL (≈ 0.135 µM)	Cc1ccc2c(=O)n(CCC[C@@H]3CN(c4ccc5c(c4)NC(=O)CS5)C(=O)O3)c(=O)[nH]c2c1 [Example 11, 7-methyl-3-{3-[(R)-2-oxo-3-(3-oxo-3,4-dihydro-2H-benzo[1,4]-thiazin-6-yl)-oxazolidin-5-yl]-propyl}-1H-quinazoline-2,4-dione]
1 µg/mL (≈ 2.08 µM)	Cn1c(=O)n(C[C@H](O)CC[C@@H]2CN(c3ccc4c(c3)NC(=O)CO4)C(=O)O2)c(=O)c2ccccc21 (racemic) [Example 49, 3-{(RS)-2-hydroxy-4-[(RS)-2-oxo-3-(3-oxo-3,4-dihydro-2H-benzo[1,4]oxazin-6-yl)-oxazolidin-5-yl]-butyl}-1-methyl-1H-quinazoline-2,4-dione]
0.031 µg/mL (≈ 0.0664 µM)	O=C1CSc2ccc(N3CC(CCCCn4c(=O)[nH]c5ccccc5c4=O)OC3=O)cc2N1 (racemic) [Example 48, rac-3-{4-[2-oxo-3-(3-oxo-3,4-dihydro-2H-benzo[1,4]thiazin-6-yl)-oxazolidin-5-yl]-butyl}-1H-quinazoline-2,4-dione]
0.063 µg/mL (≈ 0.135 µM)	Cc1ccc2[nH]c(=O)n(CCC[C@@H]3CN(c4ccc5c(c4)NC(=O)CS5)C(=O)O3)c(=O)c2c1 [Example 10, 6-methyl-3-{3-[(R)-2-oxo-3-(3-oxo-3,4-dihydro-2H-benzo[1,4]thiazin-6-yl)-oxazolidin-5-yl]-propyl}-1H-quinazoline-2,4-dione]
≤ 0.25 µg/mL	CCCn1c(=O)n(CCC[C@@H]2CN(c3ccc4c(c3)NC(=O)CS4)C(=O)O2)c(=O)c2ccccc21 [Example 4, 3-{3-[(R)-2-oxo-3-(3-oxo-3,4-dihydro-2H-benzo[1,4]-thiazin-6-yl)-oxazolidin-5-yl]-propyl}-1-propyl-1H-quinazoline-2,4-dione]
0.063 µg/mL (≈ 0.131 µM)	COc1ccc2[nH]c(=O)n(CCC[C@@H]3CN(c4ccc5c(c4)NC(=O)CS5)C(=O)O3)c(=O)c2c1 [Example 34, 6-methoxy-3-{3-[(R)-2-oxo-3-(3-oxo-3,4-dihydro-2H-benzo[1,4]-thiazin-6-yl)-oxazolidin-5-yl]-propyl}-1H-quinazoline-2,4-dione]
0.063 µg/mL (≈ 0.134 µM)	O=C1CSc2ccc(N3C[C@@H](CCCn4c(=O)[nH]c5cc(F)ccc5c4=O)OC3=O)cc2N1 [Example 28, 7-fluoro-3-{3-[(R)-2-oxo-3-(3-oxo-3,4-dihydro-2H-benzo[1,4]thiazin-6-yl)-oxazolidin-5-yl]-propyl}-1H-quinazoline-2,4-dione]
0.25 µg/mL (≈ 0.508 µM)	O=C1CSc2ccc(N3C[C@@H](CCCn4c(=O)c5cccc6c5n(c4=O)CCC6)OC3=O)cc2N1 [Example 41, 2-{3-[(R)-2-oxo-3-(3-oxo-3,4-dihydro-2H-benzo[1,4]thiazin-6-yl)-oxazolidin-5-yl]-propyl}-6,7-dihydro-5H-pyrido[3,2,1-ij]quinazoline-1,3-dione]
0.031 µg/mL (≈ 0.0657 µM)	O=C1COc2ccc(N3C[C@@H](CCCn4c(=O)[nH]c5c(Cl)cccc5c4=O)OC3=O)nc2N1 [Example 23, 8-chloro-3-{3-[(R)-2-oxo-3-(3-oxo-3,4-dihydro-2H-pyrido[3,2-b][1,4]oxazin-6-yl)-oxazolidin-5-yl]-propyl}-1H-quinazoline-2,4-dione]
0.25 µg/mL (≈ 0.519 µM)	Cc1cccc2[nH]c(=O)n(CCNC[C@@H]3CN(c4ccc5c(c4)NC(=O)CS5)C(=O)O3)c(=O)c12 [Example 59, 5-methyl-3-(2-{[(R)-2-oxo-3-(3-oxo-3,4-dihydro-2H-benzo[1,4]thiazin-6-yl)-oxazolidin-5-ylmethyl]-amino}-ethyl)-1H-quinazoline-2,4-dione]
